The text below walks through data of patent US9994691B2, “Antimicrobial cleansing composition” (Conopco, Inc., d/b/a UNILEVER, priority 2014, dated 2018).

On this data set, the source says:
Disclosed antimicrobial cleansing composition includes 0.1 to 100 ppm silver (I) compound. […] More particularly, silver ion solubility [Ag+], a value given in mol/L may be calculated using the formula: [Ag+]=(Ksp·x)^(1/(x+1))

Turning to `[Cl][Ag]` [Silver chloride], the “Silver Ion Solubility [Ag+]” value is 13 µM.
